Reference: ChEMBL document CHEMBL1142640, “New natural product isolation and comparison of the secondary metabolite content of three distinct samples of the sea hare Aplysia dactylomela from tenerife” (J Nat Prod, 2000)
In brackets after ≈: the same amount, converted by molar mass. Activity calls are given as the source filed them. No cut-off for these calls is given here.

Key:
Mycobacterium avium = assay: Antitubercular activity against Mycobacterium avium; format: functional
Caenorhabditis elegans = assay: Nematicidal activity against Caenorhabditis elegans; format: functional, organism-based
[1] = biological target: Human immunodeficiency virus type 1 reverse transcriptase (Human immunodeficiency virus 1) (UniProt Q72547); assay: Inhibition of HIV1 reverse transcriptase
[2] = biological target: Tyrosine-protein kinase Lck (Homo sapiens) (UniProt P06239); assay: Inhibition of p56lck
Priestia megaterium = assay: Antibacterial activity against Bacillus megaterium at 50 ug/disk; format: functional
Escherichia coli = assay: Antibacterial activity against Escherichia coli at 50 ug/disk; format: functional
Microbotryum violaceum = assay: Antifungal activity against Microbotryum violaceae assessed as no colonies of test organism growing within inhibition zone at 50 ug/disk; format: functional; conditions: read-out: IZ
[Chlorella] fusca [3] = Antialgal activity against Chlorella fusca assessed as no colonies of test organism growing within inhibition zone at 50 ug/disk; format: functional; conditions: Scenedesmus fuscus; read-out: IZ
[Chlorella] fusca [4] = Antialgal activity against Chlorella fusca; format: functional, Scenedesmus fuscus
[5] = Toxicity in Artemia salina at 0.5 mg/mL after 48 hrs; format: organism-based; conditions: in vivo, read-out: Activity
[6] = test system: Mycobacterium tuberculosis; assay: Antitubercular activity against Mycobacterium tuberculosis; format: functional
Lu1 = assay: Cytotoxicity against human Lu1 cells; format: functional, cell-based
KB = assay: Cytotoxicity against human KB cells; format: functional, cell-based
ZR-75-1 = assay: Cytotoxicity against human ZR-75-1 cells; format: functional, cell-based

Tyrosine-protein kinase Lck (Homo sapiens), sequence (P06239 2-509 limits assumed): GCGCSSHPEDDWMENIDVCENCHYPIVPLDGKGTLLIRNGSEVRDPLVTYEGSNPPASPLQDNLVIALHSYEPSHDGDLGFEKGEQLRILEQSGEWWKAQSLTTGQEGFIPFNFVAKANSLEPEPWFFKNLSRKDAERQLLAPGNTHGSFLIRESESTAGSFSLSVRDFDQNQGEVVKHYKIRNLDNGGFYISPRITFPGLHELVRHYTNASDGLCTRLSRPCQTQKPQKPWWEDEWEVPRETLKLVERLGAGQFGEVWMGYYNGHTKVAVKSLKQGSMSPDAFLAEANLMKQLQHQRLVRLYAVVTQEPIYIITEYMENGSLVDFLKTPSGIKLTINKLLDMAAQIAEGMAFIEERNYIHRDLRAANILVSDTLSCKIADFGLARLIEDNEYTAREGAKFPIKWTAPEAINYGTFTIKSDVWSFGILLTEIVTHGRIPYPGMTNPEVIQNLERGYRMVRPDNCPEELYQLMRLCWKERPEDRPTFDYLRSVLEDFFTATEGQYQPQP

## C[C@]1(/C=C/Cl)C[C@](Cl)(CBr)[C@@H](Br)C[C@H]1Cl
Mycobacterium avium
  MIC: 34 µg/mL (≈ 85.1 µM)
Caenorhabditis elegans
  Activity: Active
[1]
  Activity: inactive
[2]
  Activity: inactive
Priestia megaterium
  Activity: inactive
Escherichia coli
  Activity: inactive
Microbotryum violaceum
  zone of inhibition at 50 µg/disc: 2 mm
[Chlorella] fusca [3]
  zone of inhibition at 50 µg/disc: 16 mm
[Chlorella] fusca [4]
  MIC: 7 µg
[5]
  mortality at 48 h, 0.5 mg/mL: 100%
[6]
  MIC: 32 µg/mL (≈ 80.1 µM)
Lu1
  IC50: 12.9 µg/mL (≈ 32.3 µM)
KB
  IC50: 13.3 µg/mL (≈ 33.3 µM)
ZR-75-1
  IC50: 7.8 µg/mL (≈ 19.5 µM)
